Assay results from the supplement of paper PMC5844555.

Tests used:
Assay in all cases: 3' UTR reporter interaction score (median-centred robust z-score of log2 firefly/Renilla activity); higher = less repression of the 3' UTR reporter
Settings in all cases: HEK293T; 48 h
BRCA2 = test system: BRCA2
Summary of the method: (§1)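 For the interaction score, the firefly/Renilla ratio was log-transformed, expressed as a robust z-score per plate using median and median absolute deviation, and median-centred per miRNA; a more negative score indicates interaction. These scores come from at least two independent screens, averaged. Each screen used HEK293T cells at 10,000/well in 96-well plates, co-transfected with DharmaFECT Duo carrying 100 ng luc2P 3' UTR reporter, 20 ng pRL-TK and 2.5 pmol miRNA mimic, with luciferase read at 48 h.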

EZH2 = test system: EZH2
Summary of the method: as §1

FBXW7 = test system: FBXW7
Summary of the method: as §1

HRAS = test system: HRAS
Summary of the method: as §1

MYB = test system: MYB
Summary of the method: as §1

MYCN = test system: MYCN
Summary of the method: as §1

MYC = test system: MYC
Summary of the method: as §1

MYT1L = test system: MYT1L
Summary of the method: as §1

NOTCH1 = test system: NOTCH1
Summary of the method: as §1

PHF6 = test system: PHF6
Summary of the method: as §1

PHOX2B = test system: PHOX2B
Summary of the method: as §1

RB1 = test system: RB1
Summary of the method: as §1

TP53 = test system: TP53
Summary of the method: as §1

ZEB2 = test system: ZEB2
Summary of the method: as §1

Sequence	3' UTR reporter interaction score (BRCA2)	3' UTR reporter interaction score (EZH2)	3' UTR reporter interaction score (FBXW7)	3' UTR reporter interaction score (HRAS)	3' UTR reporter interaction score (MYB)	3' UTR reporter interaction score (MYCN)	3' UTR reporter interaction score (MYC)	3' UTR reporter interaction score (MYT1L)	3' UTR reporter interaction score (NOTCH1)	3' UTR reporter interaction score (PHF6)	3' UTR reporter interaction score (PHOX2B)	3' UTR reporter interaction score (RB1)	3' UTR reporter interaction score (TP53)	3' UTR reporter interaction score (ZEB2)
UAGCACCAUUUGAAAUCGGU	0.875	0.53	-2.01	0.156	0.262	-3.2	0.499	-0.0531	0.946	-0.281	-0.0846	-0.0587	-0.108	-0.664
UAGCAGCACAGAAAUAUUGGC	-0.194	-0.914	-1.49	-1.27	-2.7	-0.51	-0.447	-1.5	-0.212	1.22	0.776	0.887	0.439	2.12
UAGCAGCACAUCAUGGUUUACA	-0.138	-0.225	-2.93	-0.34	-1.34	0.0626	0.39	-3.09	-0.541	0.453	0.488	0.792	-0.579	2.82
UAGCAGCACGUAAAUAUUGGCG	-0.0822	0.0745	-0.915	-0.0204	0.8	0.0935	0.946	-0.142	-0.0927	-0.551	-0.629	-0.115	-0.054	0.217
UAGCAGCGGGAACAGUUCUGCAG	0.681	-0.757	-2.86	-0.261	-2.27	0.142	0.339	-3.34	9.71e-17	0.822	-0.446	0.756	1.12	0.481
UAGCUUAUCAGACUGAUGUUGA	-0.228	0.437	0.067	-0.166	0.65	-0.604	-0.465	-0.0152	-0.0874	0.231	0.355	0.943	-0.564	-0.0716
UAGGCAGUGUCAUUAGCUGAUUG	1.04	-5.52	-1.11	1.22	-2.78	-3.63	-5.22	0.837	-2.66	0.274	1.92	-0.567	0.66	-1.58
UAGGUAGUUUCAUGUUGUUGG	0.216	-1.54	1.58	-0.663	-1.52	-1.16	-1.91	1.55	-0.0228	-0.281	1.68	0.553	0.576	0.231
UAGGUUAUCCGUGUUGCCUUCG	-0.557	0.345	-0.104	0.327	1.02	0.616	-0.452	-0.174	0.0096	1.26	0.827	-0.0884	-0.804	0.258
UAGUACCAGUACCUUGUGUUCA	-0.45	0.789	0.884	0.088	-2.96	0.174	0.000513	0.421	-0.471	-0.322	-0.362	0.0822	-0.292	1.08
UAGUGCAAUAUUGCUUAUAGGGUUU	-0.656	-1.22	0.629	0.0165	-2.42	0.515	0.454	0.572	0.766	0.108	-0.0733	1.16	-1.04	-0.0644
UAUACAAGGGCAAGCUCUCUGU	-0.0857	-0.739	0.144	0.186	0.159	-1.08	0.32	0.075	-0.0974	0.0525	0.912	0.0344	-0.221	-0.506
UAUGCAUUGUAUUUUUAGGUCC	0.674	0.224	-0.388	0.558	-1.29	-0.281	0.248	-0.778	0.872	-1.28	-2.52	0.308	-0.83	-1.13
UAUGGCACUGGUAGAAUUCACUG	0.00324	0.196	0.255	-0.187	0.482	0.735	0.422	0.00898	-0.295	-1.31	0.374	-0.628	-0.0687	-2.1
UAUGGCUUUUCAUUCCUAUGUG	-1.68	0.203	0.501	-0.329	-0.208	0.938	-0.427	0.255	0.259	-0.00424	0.949	-1.89	0.354	0.267
UAUGGCUUUUUAUUCCUAUGUGA	0.03	0.742	0.0824	-0.268	-0.0826	0.776	-0.0719	0.172	-0.625	0.879	-1.06	-0.178	0.14	0.676
UAUGUAAUAUGGUCCACAUCUU	-0.619	-0.223	0.706	-0.0539	0.474	0.254	0.455	1.41	0.765	-0.945	0.805	0.421	-0.793	-1.16
UAUGUGCCUUUGGACUACAUCG	-1.13	-0.568	0.444	-0.0556	0.663	0	0.403	-1.09	0.00167	0.707	-3.33	0.319	-0.404	0.0793
UAUGUGGGAUGGUAAACCGCUU	-0.81	0.226	1.55	-0.809	1.45	0.212	0.022	-2.09	0.24	-0.864	-0.0868	0.217	-0.352	2.77

Sequence	3' UTR reporter interaction score (BRCA2)	3' UTR reporter interaction score (EZH2)	3' UTR reporter interaction score (FBXW7)	3' UTR reporter interaction score (HRAS)	3' UTR reporter interaction score (MYB)	3' UTR reporter interaction score (MYCN)	3' UTR reporter interaction score (MYC)	3' UTR reporter interaction score (MYT1L)	3' UTR reporter interaction score (NOTCH1)	3' UTR reporter interaction score (PHF6)	3' UTR reporter interaction score (PHOX2B)	3' UTR reporter interaction score (RB1)	3' UTR reporter interaction score (TP53)	3' UTR reporter interaction score (ZEB2)
UAUUGCACUCGUCCCGGCCUC	0.27	-0.851	-2.89	-0.467	0.69	1.3	0.586	-1.11	-1.13	0.726	1.55	0.116	-0.261	-1.97
UAUUGCACUUGUCCCGGCCUG	1.75	-0.214	-2.99	0.114	-1.54	1.23	0.754	-1.81	-0.177	0.0608	0.517	1.41	0.235	-2.03
UAUUGCUUAAGAAUACGCGUAG	0.543	0.837	-1.25	0.147	-0.789	0.474	-0.116	0.685	-0.139	-1.32	-0.259	0.636	-0.087	0.0907
UCAAAUGCUCAGACUCCUGU	-3.48	0.251	0.918	0.546	-3.31	1.14	-0.559	-0.983	-0.149	0.837	0.0556	1.29	-0.221	-1
UCAAGAGCAAUAACGAAAAAUGU	0.701	-0.0128	0.698	-0.0915	-0.127	-0.782	-0.189	-2.38	0.351	0.162	-0.662	-2.16	0.338	0.703
UCACAAUGCUGACACUCAAACUGCUGAC	-3.53	0.195	0.257	-0.335	-0.419	-0.126	0.447	0.647	-0.0831	0.399	0.242	-0.143	-0.424	-1.11
UCACAGUGAACCGGUCUCUUUC	0.111	0.78	-1.67	-0.688	-1.23	0.302	0.45	0.655	-0.749	-3.58	0.244	-0.537	0.241	-2.39
UCACAGUGAACCGGUCUCUUUU	-0.31	0.47	-1.07	-2.6	0.662	1.36	-0.0365	-2.56	-0.144	1.79	-1.31	1.15	0.412	-4.74
UCAGAACAAAUGCCGGUUCCCAGA	-0.146	0.61	0.465	1.03	0.483	0.0784	0.178	-0.318	-0.509	0.882	-0.368	-0.316	-1.5	0.0144
UCAGGCUCAGUCCCCUCCCGAU	0.841	0.0569	0.573	-0.122	-1.88	-0.567	0.0353	-0.304	-0.181	0.0613	0.106	0.0824	0.0121	1.33
UCAGUCUCAUCUGCAAAGAAG	-0.924	1.71	0.372	1.08	-0.485	1.11	0.794	-1.02	-1.13	-0.895	0.237	0.581	-0.202	-0.368
UCAGUGCACUACAGAACUUUGU	-1.23	-0.364	0.473	-0.763	-1.33	0.963	0.0974	1.34	0.169	0.792	-0.0276	1.18	-0.523	1.75
UCAGUGCAUCACAGAACUUUGU	-1.11	-0.211	0.15	-0.998	-1.04	0.974	0.216	1.61	0.0134	0.428	-0.909	1.28	-0.15	1.9
UCAGUGCAUGACAGAACUUGGG	-0.0322	0.0466	0.501	-1.05	-1.5	0.0157	0.213	0.827	0.274	1.76	-1.31	-2.16	-0.341	1.1
UCCAGCAUCAGUGAUUUUGUUGA	0.64	0.0592	-0.0681	-0.335	0.387	-0.105	-0.461	-0.429	-0.191	0.0153	1.43	-0.243	-0.53	0.915
UCCAGCUCCUAUAUGAUGCCUUU	0.152	0.255	0.91	-0.216	0.963	-0.396	0.624	-1.49	-1.09	-0.704	-0.208	-0.767	0.0762	-2.75
UCCAGUACCACGUGUCAGGGCCA	0.581	-1.44	-1.35	0.159	0.593	-3.01	-0.893	0.747	0.223	-0.805	0.294	0.837	-0.171	0.742
UCCCACGUUGUGGCCCAGCAG	0.793	0.303	-0.0713	-0.421	-0.00342	-0.504	0.28	-0.668	0.591	0.0798	-0.461	-2.41	0.863	-0.736
UCCCUGAGACCCUAACUUGUGA	1.7	0.82	-0.252	1.12	-0.19	0.264	1.24	0.796	-0.154	0.386	-1.65	-0.398	-1.15	1.05
